Consider 25 compounds from article PMC11049645, “Mechanistic Study of Novel Dipeptidyl Peptidase IV Inhibitory Peptides from Goat’s Milk Based on Peptidomics and In Silico Analysis” (Foods, 2024).

Like-named read-outs stand apart in the source and are kept apart here. Peptide text beside a SMILES is read from it.

The target of data set [1] is T1, DPP-IV (Homo sapiens, UniProt P27487).
T1 construct: purchased Sigma-Aldrich
Description: DPP-IV inhibitory assay (in vitro chemical system, Gly-Pro-pNA). The class given is biochemical. The note with it: Gly-Pro-pNA substrate, pH 8, 37 °C, 60 min, mean ± SD. How it is done:
The DPP-IV inhibitory activity of peptides was performed as previously reported with slight modifications. Briefly, peptides were diluted using 100 mM Tris-HCL buffer (pH = 8). Then, 25 μL diluted peptides were mixed with 25 μL of 1.6 mM Gly-Pro-pNA in a 96-well microplate and incubated at 37 °C for 10 min. […] The DPP-IV-inhibition (DI) was calculated with the following equation: DI%=1−AS−ASC/ANR−ANC×100% where AS (sample) is the optical density in the presence of peptide, DPP-IV, and Gly-Pro-pNA; ASC (sample control) is the optical density when DPP-IV is replaced with Tris-HCl buffer (100 mM, pH 8.0); ANR (negative reaction) is the optical density in the presence of only DPP-IV solution and Gly-Pro-pNA; and ANC (negative control) is the optical density in the absence of DPP-IV and peptide.

For data set [2], the system named is DPP-IV. The note with it: cited from earlier work.
Data set [3] concerns the target T2, DPP-IV activity of Caco-2 cells (Homo sapiens, UniProt P27487).
T2 construct: endogenous in cells; host or cells: Caco-2
Description: In situ cell-based DPP-IV inhibition (Gly-Pro-AMC). The note with it: 1 h at 37 °C, Gly-Pro-AMC 50 µM, mean ± SD (n = 3), read-out: In situ DPP-IV inhibitory activity IC50. How it is done: (§1) The Caco-2 cells (Cell Bank of Shanghai Academy of Biological Science, Shanghai, China) were incubated at 37 °C in a 5% CO2 environment in DMEM supplemented with 10% FBS and 1% penicillin–streptomycin liquid. Unless otherwise stated below, the cells were cultivated at a density of 5 × 10^4 cells/mL in the culture dishes (Corning Inc., Corning, NY, USA). The cell culture medium was changed every two days, and the cells from passage numbers of 15–25 were used in this study.
Briefly, 2 × 10^4 Caco-2 cells/well cells were seeded in 96-well microplates and cultivated for 24 h. […] Subsequently, 100 µL of the fluorescent substrate Gly-Pro-AMC (50 µM) was added to each well and incubated for 5 min. IPI was used as a positive control. Then, the florescence was monitored with excitation and emission wavelengths of 380 nm and 500 nm (Molecular Devices SpectraMax M5, San Jose, CA, USA).

In a further data set the test system is Caco-2 cells. Description: Cell viability assay (MTT). Type of data set: cell-based. The note with it: 0.025~1 mg/mL, 12 h. The protocol:
as §1
The cell viability was determined following the method described by You et al. with slight modification. Briefly, Caco-2 cells were seeded in 96-well microplates with a density of 1 × 10^4 cells/well and incubated at 37 °C with 5% CO2 for 24 h. […] After 12 h of intervention, 10 μL of MTT (0.05 mg) was added and incubated for another 4 h. Finally, the DMEM medium was replaced with 100 μL of DMSO and the absorbance of the solubilized crystals was detected at 490 nm (Molecular Devices SpectraMax M5, San Jose, CA, USA). The cell viability was calculated by the following equation:Cell viability (%) = (ODtest − ODblank)/(ODcontrol − ODblank) × 100%

Where [4] appears, read: in vitro inhibition test, camel-milk-derived protein hydrolysates.
The mark [5] stands for this setting: competitive DPP-IV inhibitory peptides from camel whey protein, read-out: DPP-IV inhibition IC50.
[6] abbreviates: read-out: DPP-IV inhibition IC50.
[7] abbreviates: peptides with molecular weights greater than 1000 Da, no reference given, read-out: DPP-IV inhibition IC50.
Setting [8] is: in vitro, identified in the intestinal tract following cow milk ingestion, read-out: DPP-IV inhibition IC50.

T1 sequence (P27487 whole entry): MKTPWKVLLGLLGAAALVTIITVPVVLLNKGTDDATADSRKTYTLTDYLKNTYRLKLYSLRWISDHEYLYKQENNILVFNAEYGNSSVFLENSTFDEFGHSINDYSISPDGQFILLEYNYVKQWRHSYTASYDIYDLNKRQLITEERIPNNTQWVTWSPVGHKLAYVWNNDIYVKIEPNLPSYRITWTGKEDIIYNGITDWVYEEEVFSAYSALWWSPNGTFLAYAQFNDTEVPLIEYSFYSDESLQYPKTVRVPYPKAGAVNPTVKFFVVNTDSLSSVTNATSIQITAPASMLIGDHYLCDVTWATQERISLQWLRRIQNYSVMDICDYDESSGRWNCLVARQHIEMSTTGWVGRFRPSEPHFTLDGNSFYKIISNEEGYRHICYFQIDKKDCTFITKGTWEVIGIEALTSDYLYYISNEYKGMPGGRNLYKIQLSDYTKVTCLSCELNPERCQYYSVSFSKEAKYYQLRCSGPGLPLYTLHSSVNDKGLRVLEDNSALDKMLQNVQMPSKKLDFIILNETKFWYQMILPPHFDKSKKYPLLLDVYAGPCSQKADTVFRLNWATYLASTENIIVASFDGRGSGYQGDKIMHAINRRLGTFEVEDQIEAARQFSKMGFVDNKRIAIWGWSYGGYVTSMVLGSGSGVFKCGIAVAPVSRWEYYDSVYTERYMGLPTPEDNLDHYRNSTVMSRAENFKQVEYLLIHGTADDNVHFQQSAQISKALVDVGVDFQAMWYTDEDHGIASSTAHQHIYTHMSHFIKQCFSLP
T2 sequence (P27487 whole entry): as above

Regarding LLW [Peptide P14], the “DPP-IV Inhibitory Activity (IC50, μM)” value at DPP-IV [1] is listed as “not detectable”; on DPP-IV [1] (listed as LLW) it was “no DPP-IV inhibitory activity”.
One may read the IC50 as the concentration at which inhibition is half-maximal. With `CC(C)C[C@H](NC(=O)[C@@H]1CCCN1C(=O)[C@@H]1CCCN1C(=O)[C@@H](N)CC(C)C)C(=O)O` [Peptide P3, LPPL] (H-LPPL-OH; N-terminus and C-terminus assumed), at DPP-IV [1], it took 2559 ± 5.7 µM to reach half-maximal inhibition (IC50).
FLEP: the IC50 with DPP-IV [2] (tri- and tetrapeptides containing Pro at the C-terminus, read-out: DPP-IV inhibition IC50) is 65.3 ± 3.5 µM.
`CC(C)C[C@H](NC(=O)[C@@H](N)CC(C)C)C(=O)N[C@@H](CC(C)C)C(=O)N1CCC[C@H]1C(=O)O` [Peptide P9, LLLP] (H-LLLP-OH; N-terminus and C-terminus assumed): the IC50 on DPP-IV [1] came to 214 ± 0.64 µM; in data set [3], 155 ± 8.41 µM. The Cell viability entry in the data set on Caco-2 cells is listed as “no significant decrease in cell viability”.
`CC(C)C[C@H](NC(=O)[C@H](C)NC(=O)[C@@H]1CCCN1)C(=O)N[C@@H](Cc1ccccc1)C(=O)O` [Peptide P5, PALF] (H-PALF-OH; N-terminus and C-terminus assumed) displayed an IC50 on DPP-IV [1] of 1750 ± 29.9 µM.
For the compound LVW [Peptide P11], the “DPP-IV Inhibitory Activity (IC50, μM)” value on DPP-IV [1] was “not detectable”.
In the case of MPVQA, the IC50 in the data set with DPP-IV [2] (setting [4]) was 93.3 ± 8 µM.
On to VPF, for which the IC50 in the data set with DPP-IV [2] (setting [5]) is 55.1 µM.
As to WVL [Peptide P10], the “DPP-IV inhibitory activity (in words)” value in the data set on DPP-IV [2] (literature search) is recorded as “previously reported to have DPP-IV inhibitory activity”.
As for IPYWT, the concentration for half-maximal inhibition (IC50) in the data set on DPP-IV [2] (setting [6]) was 18.3 µM.
As to INNQFLPYPY, in the data set with DPP-IV [2] (setting [7]), the IC50 is 40.1 µM.
With IPM, the IC50 with DPP-IV [2] (setting [8]) is 69.5 ± 8.7 µM.
As to LWV [Peptide P12], the “DPP-IV Inhibitory Activity (IC50, μM)” value on DPP-IV [1] is listed as “not detectable”.
Take IPAVF: the IC50 in the data set on DPP-IV [2] (identified from bovine β-lactoglobulin, read-out: DPP-IV inhibition IC50) was 44.7 µM.
Consider `CC(C)[C@H](N)C(=O)N1CCC[C@H]1C(=O)N1CCC[C@H]1C(=O)N[C@@H](Cc1ccccc1)C(=O)O` [Peptide P2, VPPF] (H-VPPF-OH), for which, on DPP-IV [1], half-maximal inhibition (IC50) required 1570 ± 256 µM.
Take YPI: the IC50 with DPP-IV [2] (setting [5]) was 35 µM.
As for FVY [Peptide P6], the “DPP-IV Inhibitory Activity (IC50, μM)” value on DPP-IV [1] was “not detectable”.
Regarding IPYWTY, the IC50 in the data set with DPP-IV [2] (setting [6]) is 11 µM.
For LPVP, the IC50 in the data set with DPP-IV [2] (setting [4]) is 87 ± 3.2 µM.
Take `N[C@@H](Cc1ccc(O)cc1)C(=O)N1CCC[C@H]1C(=O)N[C@@H](Cc1ccccc1)C(=O)O` [Peptide P4, YPF] (H-Tyr-Pro-Phe-OH): the Cell viability result with Caco-2 cells is reported as “no significant decrease in cell viability”.
LYL [Peptide P7]: the “DPP-IV Inhibitory Activity (IC50, μM)” value on DPP-IV [1] is “not detectable”.
Regarding PACGGFYISGRPG, the IC50 in the data set on DPP-IV [2] (setting [7]) is 9.4 µM.
In the case of VPV, the IC50 in the data set on DPP-IV [2] (setting [5]) is 6.6 µM.
With LPVPQ, in the data set with DPP-IV [2] (setting [8]), the IC50 was 43.8 ± 8.8 µM.
In the case of LLAP, the “DPP-IV inhibitory activity (in words)” value in the data set with DPP-IV [2] was “high DPP-IV inhibitory activity”.
